Measured values from article PMC11561197, “Computational-guided discovery of UDP-glycosyltransferases for lauryl glucoside production using engineered E. coli” (Bioresources and Bioprocessing, 2024).

Target: T1, RO3G (UDP-glycosyltransferase candidate, EIE92684.1) (Rhizopus delemar, UniProt I1CW54)
T1 construct: gene RO3G_17395; codon-optimised synthetic gene in pCDFDuet-1, expressed in E. coli BL21(DE3); no predicted signal peptide; not purified
T1 sequence (I1CW54 1-527): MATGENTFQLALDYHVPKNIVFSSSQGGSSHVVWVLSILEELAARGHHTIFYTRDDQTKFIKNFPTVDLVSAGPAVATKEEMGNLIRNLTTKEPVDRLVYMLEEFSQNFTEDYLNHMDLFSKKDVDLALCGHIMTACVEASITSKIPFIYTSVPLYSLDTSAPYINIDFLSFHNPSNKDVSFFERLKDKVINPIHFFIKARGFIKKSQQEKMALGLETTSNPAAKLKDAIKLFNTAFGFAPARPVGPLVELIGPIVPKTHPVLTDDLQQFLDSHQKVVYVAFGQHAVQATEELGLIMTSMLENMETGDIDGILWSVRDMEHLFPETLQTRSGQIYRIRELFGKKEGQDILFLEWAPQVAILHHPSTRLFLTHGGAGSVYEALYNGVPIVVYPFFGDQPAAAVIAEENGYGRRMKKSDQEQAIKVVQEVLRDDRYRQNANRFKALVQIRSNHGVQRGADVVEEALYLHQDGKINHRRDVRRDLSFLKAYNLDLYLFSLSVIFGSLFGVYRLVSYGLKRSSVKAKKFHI
Test: 1-dodecanol feeding of expressing E. coli; lauryl glucoside by HPLC-RI and LC-MS
Format: cell-based
Conditions: whole E. coli BL21(DE3), M9 with 2% glucose, 2.0 mM 1-dodecanol, 30 °C, 48 h; endogenous UDP-glucose as presumed donor; GFP strain as control

CCCCCCCCCCCCO [1-dodecanol]
1-dodecanol feeding of expressing E. coli; lauryl glucoside by HPLC-RI and LC-MS: The engineered strain successfully converted 1-dodecanol to lauryl glucoside, as quantified by HPLC
